These results are taken from patent US20100009352A1, “Method for Modeling a Disease” (priority 2006, published 2010).

Structures are written as SMILES.

In one experiment the test system is PC12-HttQ103 cells. Nature of the experiment: cellular systems biology model of Huntington's Disease, mutant huntingtin-GFP expression. Format: cell-based, rat. How it is done:
FIG. 10 are example cellular systems biology profiling images for a model of Huntington's Disease (HD). PC12-HttQ103 cells were seeded in 384-well plates +/− NGF (100 ng/ml). At two days post-seeding cells were induced with 200 nM RSL1 +/− NGF (100 ng/ml) for 48 h. Following fixation, cells were stained with Hoechst and with antibodies raised against tubulin and phospho c-Jun. Tubulin was detected with a donkey anti mouse Cy3 conjugated secondary antibody and phospho c-Jun was visualized with a donkey anti rabbit Cy5 conjugated secondary antibody. Images were captured with an HCS instrument and Hoechst-stained nuclei, mutant huntingtin-GFP expression, phospho c-Jun labeled nuclei, and tubulin-stained cells are shown. […]
FIG. 11 is a graph illustrating that mutant huntingtin aggregation correlates with cell loss. […] Images were captured with an HCS instrument and the cell number and % cells with aggregates were determined with standard imaging algorithms. […]
FIG. 14. are graphs illustrating little correlation between aggregate formation and differentiation PC12-Htt-Q103 cells were treated and stained as stated in FIG. 10. Aggregate formation in untreated and NGF-treated populations was measured with standard imaging algorithms. Mean neurite count and mean branch point distance form the cell body was also measured. […]

Another experiment relates to PC12T cells. Nature of the experiment: cellular systems biology profile of GFP-Htt aggregate formation with compound treatment. Format: cell-based. How it is done:
To test if there was an interrelationship between the modulation of the microtubule cytoskeleton and the formation of huntingtin protein (Htt) aggregates, cells were induced to produce fluorescently labeled huntingtin protein (GFP-Htt). Soon thereafter, the same Cells were treated with a set of compounds including several microtubule modulators. Cellular systems biology profiling can be used to define the interrelationships between several cellular features including microtubule cytoskeletal stability, cell cycle regulation, GFP-Htt aggregate formation, and nuclear morphology.
In one embodiment, 7.5×10^+6 PC12T cells were plated into T25 tissue culture flasks and panasterone A was added to a final concentration of 5 μM. After an overnight incubation, the cells were trypsinized and replated onto collagen I coated 384-well microplates at a density of 10000 cells per well in medium containing 1 μM panasterone A (24 h after the first panasterone A treatment began). Cells were treated for 26 h with 14 compounds at 12 concentrations each ranging from <1 nM to 50 μM. At the end of the incubation period, cells were fixed with 3.7% formaldehyde, permeabilized with 0.5% Triton X-100 detergent, and labeled with primary-secondary antibody pairs to measure microtubule stability (α-tubulin) and mitotic events (phospho-histone […]). Cells were also labeled with Hoechst 33342 (5 μg/ml) to provide measurements of cell cycle regulation (DNA content), changes in cell number, and multiple nuclear morphology measurements including chromatin condensation and nuclear size and shape.
To build a cellular systems biology profile of the cellular response to GFP-Htt aggregation and compound treatment, the following example cellular systems biology response profile features can be calculated from responses of cell populations either expressing GFP-Htt or not expressing GFP-Htt that can be separated mathematically from each other and analyzed separately.

As for `CCc1c(OC)cccc1C(=O)NN(C(=O)c1cc(C)cc(C)c1)C(C)(C)C` [RSL1], in the experiment with PC12-HttQ103 cells (200 nM RSL1, as a function of treatment time), the cell number entry is “decreased”. Also, the “% cells with aggregates” value with PC12-HttQ103 cells (200 nM RSL1 induction) stood at 50%.

For `COC(=O)Nc1nc2ccc(C(=O)c3cccs3)cc2[nH]1` [nocodazole], in the experiment with PC12T cells (cells with GFP-Htt aggregates versus cells without aggregates, 26 h treatment), the “compound induced modulation of cell cycle regulation (2 n/4 n distribution ratio)” value is “less responsive”. Further, the “sensitivity to the microtubule destabilizing activity” value in the experiment with PC12T cells (cells with aggregates versus cells without aggregates) is “greater sensitivity”. Moreover, the “Nocodazole-induced cell cycle regulation and nuclear morphological changes” value in the experiment on PC12T cells (in cells containing GFP-Htt aggregates) was “partially inhibited”.
